Reference: patent US12077537B2 (Gilead Sciences, Inc., priority 2020, dated 2024)

These compounds were tested on HIV-IIIb (assay: Antiviral assay in MT4 cells). Conditions: Human immunodeficiency virus 1, MT4, 120 h; MT-4 cells mixed with HIV-IIIb at m.o.i. 0.003; 5 days at 37° C.; CellTiter-Glo luminescence; 50% decrease in signal, a measure of HIV-1 replication.
Assay type: cell-based
Description: Antiviral Assay in MT4 Cells For the antiviral assay, 40 μL of a concentration required to achieve a final effective 1× test concentration of 3-fold serially diluted compound in culture medium with 10% FBS was added to each well of a 384-well plate (10 concentrations) in quadruplicate. MT-4 cells were next mixed with HIV-IIIb at an m.o.i of 0.003 for 1 hour, after which time 35 μL of virus/cell mixture (2000 cells) was immediately added to each well containing 40 μL of diluted compound. The plates were then incubated at 37° C. for 5 days. After 5 days of incubation, 25 μl of 2× concentrated CellTiter-Glom Reagent (catalog #G7571, Promega Biosciences, Inc., Madison, WI) was added to each well containing MT-4 cells. Cell lysis was carried out by incubating at room temperature for 10 min and then chemiluminescence was read.

| SMILES | EC50 [µM] |
| --- | --- |
| CC1(O)CN(c2nc3nc([C@H](Cc4cc(F)cc(F)c4)NC(=O)Cn4nc(C(F)(F)F)c5c4C(F)(F)[C@@H]4C[C@H]54)c(-c4ccc5n[nH]c(=O)n5c4)cc3s2)C1 [Compound 48, 2-((3bS,4aR)-5,5-difluoro-3-(trifluoromethyl)-3b,4,4a,5-tetrahydro-1H-cyclopropa[3,4]cyclopenta[1,2-c]pyrazol-1-yl)-N—((S)-2-(3,5-difluorophenyl)-1-(2-(3-hydroxy-3-methylazetidin-1-yl)-6-(3-oxo-2,3-dihydro-[1,2,4]triazolo[4,3-a]pyridin-6-yl)thiazolo[4,5-b]pyridin-5-yl)ethyl)acetamide] | 0.249 |
| CSc1nc2nc([C@H](Cc3cc(F)cc(F)c3)NC(=O)Cn3nc(C(F)F)c4c3C(F)(F)[C@@H]3C[C@H]43)c(-c3ccc4c(c3)C(=O)NC4)cc2s1 [Compound 23-2, 2-((3bS,4aR)-3-(difluoromethyl)-5,5-difluoro-3b,4,4a,5-tetrahydro-1H-cyclopropa[3,4]cyclopenta[1,2-c]pyrazol-1-yl)-N—((S)-2-(3,5-difluorophenyl)-1-(2-(methylthio)-6-(3-oxoisoindolin-5-yl)thiazolo[4,5-b]pyridin-5-yl)ethyl)acetamide] | 0.984 |
| CN(C)CCNc1nc2nc([C@H](Cc3cc(F)cc(F)c3)NC(=O)Cn3nc(C(F)(F)F)c4c3C(F)(F)[C@@H]3C[C@H]43)c(-c3cccc4c(NS(C)(=O)=O)nn(C)c34)cc2s1 [Example 65, 2-((3bS,4aR)-5,5-difluoro-3-(trifluoromethyl)-3b,4,4a,5-tetrahydro-1H-cyclopropa[3,4]cyclopenta[1,2-c]pyrazol-1-yl)-N—((S)-2-(3,5-difluorophenyl)-1-(2-((2-(dimethylamino)ethyl)amino)-6-(1-methyl-3-(methylsulfonamido)-1H-indazol-7-yl)thiazolo[4,5-b]pyridin-5-yl)ethyl)acetamide] | 0.0236 |
| O=C(Cn1nc(C(F)(F)F)c2c1C(F)(F)[C@@H]1C[C@H]21)N[C@@H](Cc1cc(F)cc(F)c1)c1nc2nc(N3CCN(c4ccncc4)CC3)sc2cc1-c1cccc2c1CNC2=O [Compound 40, 2-((3bS,4aR)-5,5-difluoro-3-(trifluoromethyl)-3b,4,4a,5-tetrahydro-1H-cyclopropa[3,4]cyclopenta[1,2-c]pyrazol-1-yl)-N—((S)-2-(3,5-difluorophenyl)-1-(6-(1-oxoisoindolin-4-yl)-2-(4-(pyridin-4-yl)piperazin-1-yl)thiazolo[4,5-b]pyridin-5-yl)ethyl)acetamide] | 0.0281 |
| NC(=O)c1cc(-c2cc3sc(O)nc3nc2[C@H](Cc2cc(F)cc(F)c2)NC(=O)Cn2nc(C(F)F)c3c2C(F)(F)CCC3(F)F)ccc1F [Compound 15-1, (S)-5-(5-(1-(2-(3-(difluoromethyl)-4,4,7,7-tetrafluoro-4,5,6,7-tetrahydro-1H-indazol-1-yl)acetamido)-2-(3,5-difluorophenyl)ethyl)-2-hydroxythiazolo[4,5-b]pyridin-6-yl)-2-fluorobenzamide] | 0.319 |
| O=C(Cn1nc(C(F)(F)F)c2c1CCCC2)N[C@@H](Cc1ccccc1)c1nc2ccccc2[nH]1 [Example 1, (S)—N-(1-(1H-benzo[d]imidazol-2-yl)-2-phenylethyl)-2-(3-(trifluoromethyl)-4,5,6,7-tetrahydro-1H-indazol-1-yl)acetamide] | 29.7 |
| CN(C)CCNc1nc2nc(C(Cc3cc(F)cc(F)c3)NC(=O)Cn3nc(C(F)F)c4c3C(F)(F)CCC4(F)F)c(-c3ccc(F)c(C(N)=O)c3)cc2s1 (stereo not shown) [Compound 20, 5-(5-(1-(2-(3-(difluoromethyl)-4,4,7,7-tetrafluoro-4,5,6,7-tetrahydro-TH-indazol-1-yl)acetamido)-2-(3,5-difluorophenyl)ethyl)-2-((2-(dimethylamino)ethyl)amino)thiazolo[4,5-b]pyridin-6-yl)-2-fluorobenzamide] | 0.303 |
| NC(=O)c1cc(-c2cc3sc(N4CCN(c5ccc(-c6ncc[nH]6)cc5)CC4)nc3nc2[C@H](Cc2cc(F)cc(F)c2)NC(=O)Cn2nc(C(F)(F)F)c3c2C(F)(F)[C@@H]2C[C@H]32)ccc1F [Compound 28-1, 5-(2-(4-(4-(1H-imidazol-2-yl)phenyl)piperazin-1-yl)-5-((S)-1-(2-((3bS,4aR)-5,5-difluoro-3-(trifluoromethyl)-3b,4,4a,5-tetrahydro-1H-cyclopropa[3,4]cyclopenta[1,2-c]pyrazol-1-yl)acetamido)-2-(3,5-difluorophenyl)ethyl)thiazolo[4,5-b]pyridin-6-yl)-2-fluorobenzamide] | 0.3 |
| Cc1nc2nc([C@H](Cc3cc(F)cc(F)c3)NC(=O)Cn3nc(C(F)(F)F)c4c3C(F)(F)[C@@H]3C[C@H]43)c(-c3ccc(Cl)c4c(NS(C)(=O)=O)nn(C)c34)cc2[nH]1 [Example 100, N—((S)-1-(6-(4-chloro-1-methyl-3-(methylsulfonamido)-1H-indazol-7-yl)-2-methyl-1H-imidazo[4,5-b]pyridin-5-yl)-2-(3,5-difluorophenyl)ethyl)-2-((3bS,4aR)-5,5-difluoro-3-(trifluoromethyl)-3b,4,4a,5-tetrahydro-1H-cyclopropa[3,4]cyclopenta[1,2-c]pyrazol-1-yl)acetamide] | 0.0024 |
| Cn1nc(NS(C)(=O)=O)c2cccc(-c3cc4sc(NCC5(O)CC5)nc4nc3[C@H](Cc3cc(F)cc(F)c3)NC(=O)Cn3nc(C(F)(F)F)c4c3C(F)(F)[C@@H]3C[C@H]43)c21 [Example 70, 2-((3bS,4aR)-5,5-difluoro-3-(trifluoromethyl)-3b,4,4a,5-tetrahydro-1H-cyclopropa[3,4]cyclopenta[1,2-c]pyrazol-1-yl)-N—((S)-2-(3,5-difluorophenyl)-1-(2-(((1-hydroxycyclopropyl)methyl)amino)-6-(1-methyl-3-(methylsulfonamido)-1H-indazol-7-yl)thiazolo[4,5-b]pyridin-5-yl)ethyl)acetamide] | 0.0138 |
| NC(=O)c1cc(-c2cc3sc(-c4ccccc4)nc3nc2[C@H](Cc2cc(F)cc(F)c2)NC(=O)Cn2nc(C(F)(F)F)c3c2C(F)(F)[C@@H]2C[C@H]32)ccc1F [Example 118, 5-(5-((S)-1-(2-((3bS,4aR)-5,5-difluoro-3-(trifluoromethyl)-3b,4,4a,5-tetrahydro-1H-cyclopropa[3,4]cyclopenta[1,2-c]pyrazol-1-yl)acetamido)-2-(3,5-difluorophenyl)ethyl)-2-phenylthiazolo[4,5-b]pyridin-6-yl)-2-fluorobenzamide] | 0.303 |
| NC(=O)c1cc(-c2cc3sc(N4CCN(c5ccc6c(c5)OCCO6)CC4)nc3nc2[C@H](Cc2cc(F)cc(F)c2)NC(=O)Cn2nc(C(F)F)c3c2C(F)(F)CCC3(F)F)ccc1F [Compound 139, (S)-5-(5-(1-(2-(3-(difluoromethyl)-4,4,7,7-tetrafluoro-4,5,6,7-tetrahydro-1H-indazol-1-yl)acetamido)-2-(3,5-difluorophenyl)ethyl)-2-(4-(2,3-dihydrobenzo[b][1,4]dioxin-6-yl)piperazin-1-yl)thiazolo[4,5-b]pyridin-6-yl)-2-fluorobenzamide] | 0.545 |
| CC(C)N1CCN(c2nc3nc([C@H](Cc4cc(F)cc(F)c4)NC(=O)Cn4nc(C(F)(F)F)c5c4C(F)(F)[C@@H]4C[C@H]54)c(-c4cccc5c(NS(C)(=O)=O)nn(C)c45)cc3s2)CC1 [Compound 64, 2-((3bS,4aR)-5,5-difluoro-3-(trifluoromethyl)-3b,4,4a,5-tetrahydro-1H-cyclopropa[3,4]cyclopenta[1,2-c]pyrazol-1-yl)-N—((S)-2-(3,5-difluorophenyl)-1-(2-(4-isopropylpiperazin-1-yl)-6-(1-methyl-3-(methylsulfonamido)-1H-indazol-7-yl)thiazolo[4,5-b]pyridin-5-yl)ethyl)acetamide] | 0.0092 |
| Cn1nc(NS(C)(=O)=O)c2cccc(-c3cc4sc(NCCN5CCOCC5)nc4nc3[C@H](Cc3cc(F)cc(F)c3)NC(=O)Cn3nc(C(F)(F)F)c4c3C(F)(F)[C@@H]3C[C@H]43)c21 [Example 75, 2-((3bS,4aR)-5,5-difluoro-3-(trifluoromethyl)-3b,4,4a,5-tetrahydro-1H-cyclopropa[3,4]cyclopenta[1,2-c]pyrazol-1-yl)-N—((S)-2-(3,5-difluorophenyl)-1-(6-(1-methyl-3-(methylsulfonamido)-1H-indazol-7-yl)-2-((2-morpholinoethyl)amino)thiazolo[4,5-b]pyridin-5-yl)ethyl)acetamide] | 0.0094 |
| O=C(Cn1nc(C(F)(F)F)c2c1C(F)(F)[C@@H]1C[C@H]21)N[C@H](Cc1cc(F)cc(F)c1)c1nc2nc(N3CCN(c4ccncc4)CC3)sc2cc1-c1ccc2c(c1)C(=O)NC2 [Compound 37, 2-((3bS,4aR)-5,5-difluoro-3-(trifluoromethyl)-3b,4,4a,5-tetrahydro-1H-cyclopropa[3,4]cyclopenta[1,2-c]pyrazol-1-yl)-N—((R)-2-(3,5-difluorophenyl)-1-(6-(3-oxoisoindolin-5-yl)-2-(4-(pyridin-4-yl)piperazin-1-yl)thiazolo[4,5-b]pyridin-5-yl)ethyl)acetamide] | 1.07 |
| COCCNc1nc2nc([C@H](Cc3cc(F)cc(F)c3)NC(=O)Cn3nc(C(F)(F)F)c4c3C(F)(F)[C@@H]3C[C@H]43)c(-c3cccc4c(NS(C)(=O)=O)nn(C)c34)cc2s1 [Example 69, 2-((3bS,4aR)-5,5-difluoro-3-(trifluoromethyl)-3b,4,4a,5-tetrahydro-1H-cyclopropa[3,4]cyclopenta[1,2-c]pyrazol-1-yl)-N—((S)-2-(3,5-difluorophenyl)-1-(2-((2-methoxyethyl)amino)-6-(1-methyl-3-(methylsulfonamido)-1H-indazol-7-yl)thiazolo[4,5-b]pyridin-5-yl)ethyl)acetamide] | 0.0092 |
